Test results taken from patent US20210106569A1, “OMIDENEPAG COMBINATION” (priority 2017, published 2021).

Legend:
normal pressure monkeys [1] = assay: Intraocular pressure lowering, concomitant administration of omidenepag isopropyl and netarsudil (Example 2); format: in vivo, cynomolgus monkey; conditions: male cynomolgus monkeys, average of 8, eye drop 20 μL: omidenepag isopropyl 0.0006 w/v%, netarsudil 0.01 w/v% (dimesylate)
Protocol: (§1) In order to examine usefulness of the combination of omidenepag or an ester thereof or a salt thereof and netarsudil, the effect of lowering an intraocular pressure when omidenepag isopropyl and netarsudil were administered concomitantly to experimental animals (normal pressure monkeys) was investigated.
(1) Preparation of Base of Omidenepag Isopropyl Solution • (Preparation of Compound Solution to be Tested) […]
(2) Preparation of Omidenepag Isopropyl Solution
(§2) To purified water were added omidenepag isopropyl, polyoxyl 35 castor oil, glycerin, sodium citrate, sodium edetate and benzalkonium chloride to dissolve them, and after adjusting pH, purified water was added to adjust the whole amount to prepare a 0.0006 w/v% omidenepag isopropyl solution.
(3) Preparation of Netarsudil Solution
Dimesylate of netarsudil was dissolved in a physiological saline solution containing a solubilizing agent, and then, a netarsudil solution having a desired concentration was prepared by using a commonly used method.
(§3) An effect of lowering an intraocular pressure when omidenepag isopropyl and netarsudil were administered concomitantly was investigated. As a comparative subject, an effect of lowering an intraocular pressure when omidenepag isopropyl or netarsudil was administered alone was also investigated. As a control, the base of the omidenepag isopropyl solution and the base of the netarsudil solution were administered.
Omidenepag isopropyl solution: 0.0006w/v% omidenepag isopropyl solution (volume of eye dropped: 20 μL)
Netarsudil solution: 0.01 w/v% netarsudil solution (volume of eye dropped: 20 μL)
Experimental animal: cynomolgus monkey (sex: male, 8 monkeys per a group)
[1] Contamitant Administration of Omidenepag Isopropyl and Netarsudil
(§4) (1) A drop of 0.4% oxybuprocaine hydrochloride eye drop (trade name: Benoxil (Registered Trademark) eye drops 0.4%) was applied to one eye of an experimental animal and local anesthesia was conducted.
(§5) (2) Immediately before administration of a compound solution to be tested, an intraocular pressure was measured and the value was made an initial intraocular pressure.
(3) The omidenepag isopropyl solution was applied to one eye of the experimental animal (the contralateral eye was untreated). After a short time (after about 5 minutes), the netarsudil solution was applied to the same eye.
(4) After 2 hours, 4 hours, 6 hours, 8 hours and 24 hours from applying the omidenepag isopropyl solution to the eye, one drop of 0.4% oxybuprocaine hydrochloride eye drop was applied to the eye to be measured for the intraocular pressure respectively, and after local anesthesia, the intraocular pressure was measured. Also, the intraocular pressure was measured each three times, and the average value was shown in the results. […]
The test was carried out in the same manner as the above-mentioned concomitant administration test except for changing the omidenepag isopropyl solution to the base of the omidenepag isopropyl solution. […]
The changes in the intraocular pressure values are shown by an average value±SEM of the difference from the value (0 hour) before administration of eight monkeys in each group with regard to each measurement time point of each individual. Here, the significance was evaluated by the Dunnett-Hsu test, and the significance level with respect to the control group was shown as *: p<0.05, **: p<0.01, and ***: p<0.001, the significance level with respect to the omidenepag isopropyl administered group was shown as †: p<0.05, ††: p<0.01, and †††: p<0.001, and the significance level with respect to the netarsudil administered group was shown as ♯♯: p<0.01, and ♯♯♯p<0.001.

normal pressure monkeys [2] = assay: Intraocular pressure lowering, concomitant administration of omidenepag isopropyl and ripasudil (Example 1); format: in vivo, cynomolgus monkey; conditions: male cynomolgus monkeys, average of 7, eye drop 20 μL: omidenepag isopropyl 0.0006 w/v%, ripasudil eye drops 0.4%
Protocol: as §1, with “ripasudil,” for “netarsudil,”, “ripasudil” for “netarsudil”
To purified water were added polyoxyl 35 castor oil, glycerin, sodium citrate, sodium edetate and benzalkonium chloride to dissolve them, and after adjusting pH, purified water was added to adjust the whole amount.
as §2
Commercially available physiological saline solution (trade name: Otsuka Normal Saline, obtained from Otsuka Pharmaceutical Factory, Inc.) was used as it was.
Commercially available ripasudil eye drop was used as it was.
as §3, with “ripasudil” for “netarsudil”, “base” for “base of the omidenepag isopropyl solution”, “physiological saline” for “base of the netarsudil”
Omidenepag isopropyl solution: 0.0006w/v% omidenepag isopropyl solution (volume of eye dropped: 20 μL) Ripasudil solution: ripasudil eye drop (trade name: Glanatec (Registered Trademark) eye drops 0.4%, volume of eye dropped: 20 μL)
Experimental animal: cynomolgus monkey (sex: male, 7 monkeys per a group)
[1] Concomitant Administration of Omidenepag Isopropyl and Ripasudil
as §4, §5
(3) The omidenepag isopropyl solution was applied to one eye of the experimental animal (the contralateral eye was untreated). After a short time (after about 5 minutes), the ripasudil solution was applied to the same eye.
(4) After 2 hours, 4 hours, 6 hours, 8 hours and 24 hours from applying the omidenepag isopropyl solution to the eye, one drop of 0.4% oxybuprocaine hydrochloride eye drop was applied to the eye to be measured for the intraocular pressure respectively, and after local anesthesia, the intraocular pressure was measured. Also, the intraocular pressure was measured each three times, and the average value was shown in the results.
[2] Single Administration of Omidenepag Isopropyl
The test was carried out in the same manner as the above-mentioned concomitant administration test except for changing the ripasudil solution to the physiological saline solution.
[3] Single Administration of Ripasudil
The test was carried out in the same manner as the above-mentioned concomitant administration test except for changing the omidenepag isopropyl solution to the base.
The test was carried out in the same manner as the above-mentioned concomitant administration test except for changing the omidenepag isopropyl solution to the base and changing the ripasudil solution to the physiological saline solution.
The changes in the intraocular pressure values are shown by an average value±SEM of the difference from the value (0 hour) before administration of seven monkeys in each group with regard to each measurement time point of each individual. […]

Structure (SMILES)	change in intraocular pressure value (difference from value before administration) (normal pressure monkeys [1]; 2 hours after dropping)	change in intraocular pressure value (difference from value before administration) (normal pressure monkeys [1]; 4 hours after dropping)	change in intraocular pressure value (difference from value before administration) (normal pressure monkeys [1]; 6 hours after dropping)	change in intraocular pressure value (difference from value before administration) (normal pressure monkeys [1]; 8 hours after dropping)	change in intraocular pressure value (difference from value before administration) (normal pressure monkeys [1]; 24 hours after dropping)	change in intraocular pressure value (difference from value before administration) (normal pressure monkeys [2]; 2 hours after dropping)	change in intraocular pressure value (difference from value before administration) (normal pressure monkeys [2]; 4 hours after dropping)	change in intraocular pressure value (difference from value before administration) (normal pressure monkeys [2]; 6 hours after dropping)	change in intraocular pressure value (difference from value before administration) (normal pressure monkeys [2]; 8 hours after dropping)	change in intraocular pressure value (difference from value before administration) (normal pressure monkeys [2]; 24 hours after dropping)
Cc1ccc(C(=O)OCc2ccc([C@@H](CN)C(=O)Nc3ccc4cnccc4c3)cc2)c(C)c1 [Netarsudil, [4-[(1S)-1-(aminomethyl)-2-(isoquinolin-6-ylamino)-2-oxoethyl]phenyl]methyl 2,4-dimethylbenzoate]	−1.5	−2.3	−3.0	−3.0	−0.8					
CC(C)OC(=O)CNc1cccc(CN(Cc2ccc(-n3cccn3)cc2)S(=O)(=O)c2cccnc2)n1 [Omidenepag isopropyl, isopropyl (6-{[4-(pyrazol-1-yl)benzyl](pyridin-3-ylsulfonyl)aminomethyl}pyridin-2-ylamino)acetate]	−0.9	−2.5	−2.5	−2.3	−0.3	0.0	−1.2	−0.7	−0.6	−0.1
C[C@H]1CNCCCN1S(=O)(=O)c1cccc2cncc(F)c12 [Ripasudil, (S)-(-)-1-(4-fluoro-5-isoquinolinesulfonyl) 2-methyl-1,4-homopiperazine]						−2.7	−1.6	−1.6	−0.8	0.0
